Experimental data published in patent publication US6632981B1, “DNA sequences encoding polypeptides having beta-1,3-glucanase activity” (Novartis Finance Corporation, priority 1988, dated 2003).

Assays:
[1] = tested on: chemically regulatable chimeric genes coding for GUS, AHAS or BT; experiment: Primer extension assay for mRNA of chemically regulatable chimeric genes; type: in vivo; details: callus or regenerated plant material from transgenic plants; level proportional to amount of regulator applied
Experimental: 50 g of total RNA is lyophilized in a 500 l Eppendorf tube. The RNA is resuspended in 30 l of radiolabeled probe solution and heated to 70′ C. for 10 minutes. The tube is slowly cooled to 37° C. and allowed to incubate overnight. Without removing the tube from the 37° C. water bath, 2 l of 10×reverse-transcriptase buffer (500 mM Tris-HCl, pH 7.5, 400 mM KCl, 30 mM MgCl2), 1 l 5 mg/ml bovine serum albumin, 5 l 100 mM dithiothreitol, 5 l 10×dNTPs (10 mM of each dNTP in H2O), 3 l H 20, 2 l RNasin (80 units), and 2 l reverse transcriptase (400 units) are added and the reaction is incubated at 37° C. for 30 minutes. To stop the reaction, 5 l of 3 M sodium acetate, pH 5, and 150 l absolute ethanol are added. The tube is left at −20° C. for 30 minutes, the precipitate is collected by centrifugation, washed with 80% ethanol and allowed to air-dry. The precipitate is resuspended in 10-20 l of loading dye (90% formamide, 0.05% bromophenol blue, 0.05% xylene cyanol, 1 mM EDTA) and the extension products are separated on a 6% sequencing gel (Maniatis, T. et al., supra). Extension products are visualized by autoradiography.
Plant materials induced and harvested as in Examples 140 to 142 are assayed for the induction of mRNA species by the isolation of RNA and the primer extension assay as described in Example 6.
The level of mRNA is proportional to the amount of regulator applied.

[2] = tested on: PR-1 promoter-LUC gene fusion; experiment: Chemical induction of the Arabidopsis PR-1 promoter-LUC gene fusion; type: in vivo
Excerpt: pAtPR1-R was cleaved with XhoI and SacI and transferred to SalI/SacI cleaved pCIB200 to create a binary vector construction (pAtPR1-S) suitable for Arabidopsis transformation (see example 28). pAtPR1-S was then transferred to Agrobacterium tumefaciens strain A136/pCIB542 for transfer to Arabidopsis Dijon-0 using the method described by Wen-jun and Forde, Nucl. Acids Res. 17: 8385-8386 (1989). T2 or […] lines carrying the PR1-LUC transgene in the homozygous state were generated for chemical induction analysis.
Leaves of transgenic Arabidopsis lines carrying the PR-1 promoter-LUC gene fusion were treated by spraying with 0.15 g/ml INA (isonicotinic acid) for 48 h. Five days later, sprayed leaves were analyzed for luciferase activity using the Promega Luciferase Assay System (Cat. #E 1500). […] In other assays, luciferase activity was measured by imaging lines for bioluminescence using intensified cameras (VIM) and photon-counting image processors (ARGUS-50 or ARGUS-100) from Hamamatsu Photonic Systems (Bridgewater, N.J.). Leaves were sprayed with INA and subsequently with a 5 mM solution of D-luciferin (Analytical Bioluminescence Laboratories, San Diego, Calif.) 24 h before and then immediately before imaging.

[3] = tested on: salicylic acid; experiment: Antagonism of the salicylic acid cell signal on exogenous application to a plant; type: in vivo; details: applied exogenously to a plant
Excerpt: Those skilled in the art will appreciate that other means can be employed to achieve the same effect. For instance, a second method involves the expression or overexpression in a transformed plant of a gene encoding an enzyme which catalyzes the modification; e.g., degradation, of a metabolic precursor of the signal molecule so that the plant is rendered incapable of producing the signal molecule. A third method involves the external application to the plant of antagonists of the target cell signal. […] Instead, inhibition of the cell signal response is effected. […] See, Yang and Hoffman, Ann. Rev. Plant Physiol. 35:155-189 (1984).

[4] = tested on: SAR response; experiment: Chemical induction of SAR in nahG-expressing plants; type: in vivo, Nicotiana tabacum cv Xanthi-nc; details: plants of lines nahG-3, -8 and -10 (blocked in SAR response to disease infection) treated with the inducing chemical
Excerpt: Three lines, nahG-3, -8 and -10, were shown above to express high levels of nahG mRNA and salicylate hydroxylase protein, and to be blocked in their SAR response to disease infection.

[5] = tested on: PR-1a promoter fused to the GUS reporter gene; experiment: Chemical regulation of PR-1a promoter/GUS in nahG-expressing plants; type: in vivo; details: progeny of PR-1a promoter/GUS plants crossed to nahG-3, -8 and -10
Excerpt: Consequently, the chemical regulation of the PR-1a gene promoter can be utilized without the activation of the endogenous cell signal SA.

[6] = tested on: PR-1a promoter fused to a gene encoding the delta-endotoxin of Bacillus thuringensis; experiment: Chemical regulation of PR-1a promoter/Bacillus thuringiensis delta-endotoxin gene in nahG-expressing plants; type: in vivo; details: progeny of PR-1a promoter/delta-endotoxin plants crossed to nahG-3, -8 and -10

O=C(O)c1cc(Cl)nc(Cl)c1 [2,6-dichloroisonicotinic acid] was tested. Which “level of mRNA of the chimeric gene (GUS, AHAS or BT primer), primer extension assay” value (“level of mRNA of the chimeric gene” for short) [1] did it give?
The value was “elevated levels of mRNA”.

How did the “level of mRNA of the chimeric gene” value [1] turn out when CCC(C)N(N)C(=O)c1cccc2nnsc12 (centres unmarked) [benzo-1,2,3-thiadiazole-7-carboxylic acid N-sec-butylhydrazide] was run?
Its value is “elevated levels of mRNA”.

CCCOC(=O)c1cccc2nnsc12 [n-propyl benzo-1,2,3-thiadiazole-7-carboxylate] was tested. Which “level of mRNA of the chimeric gene” value [1] did it give?
The value was “elevated levels of mRNA”.

With O=C(O)c1ccncc1 [INA, isonicotinic acid] as the compound, how does the “bioluminescence (imaging, photon counting)” value ([2]; compared to water-treated controls, D-luciferin 5 mM) read?
The value was “strongly induced bioluminescence”.

And the “luciferase activity, induction over controls” value ([2]; leaves sprayed with 0.15 g/ml for 48 h, analyzed five days later, Promega Luciferase Assay System)?
The value was 144 fold.

With CC[Si](CC)(CC)c1ccccc1C(=O)O [o-triethylsilyl benzoic acid] as the compound, how does the “effect on the salicylic acid cell signal” value [3] read?
The value was “antagonistic effect”.

O=C(OCc1ccccc1)c1cccc2nnsc12 [benzyl benzo-1,2,3-thiadiazole-7-carboxylate] was tested. Which “level of mRNA of the chimeric gene” value [1] did it give?
The value was “elevated levels of mRNA”.

What does the source list for O=C(O)c1cccc2nnsc12 [benzo-1,2,3-thiadiazole-7-carboxylic acid]?
SAR response [4]: shown to possess the SAR response; GUS expression [5]: express GUS; level of mRNA of the chimeric gene (GUS, AHAS or BT primer), primer extension assay [1]: elevated levels of mRNA; endotoxin gene expression [6]: express the endotoxin gene
